Measured values published in the supplement of paper PMC10307832.

Tests used:
Assay in all cases: relative viability (nuclei count vs DMSO), 5 days (fraction); higher = more cells survive
4EGI-1 + Dasatinib = compound: O=C(O)C(Cc1ccccc1[N+](=O)[O-])=NNc1nc(-c2ccc(Cl)c(Cl)c2)cs1 (mixture of isomers) [4EGI-1] + Cc1nc(Nc2ncc(C(=O)Nc3c(C)cccc3Cl)s2)cc(N2CCN(CCO)CC2)n1 [Dasatinib] (partner 0.075 µM)
How it was run: (§1)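 Relative viability equals treated-well nuclei counts divided by vehicle-well nuclei counts. Counts came from 4× images of lung cancer cell lines grown in 1536-well plates for 5 days after pin-tool dosing on the day after seeding. Dosing used one drug alone or a fixed anchor-drug dose plus five library-drug doses (not always all listed) in √10 steps, and values are medians of duplicate plates.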

XMD8-85 + Navitoclax = compound: CN1CCN(CC1)C2=CC(=C(C=C2)NC3=NC=C4C(=N3)N(C5=CC=CC=C5C(=O)N4C)C)OC [XMD8-85] + CC1(C)CCC(c2ccc(Cl)cc2)=C(CN2CCN(c3ccc(C(=O)NS(=O)(=O)c4ccc(N[C@H](CCN5CCOCC5)CSc5ccccc5)c(S(=O)(=O)C(F)(F)F)c4)cc3)CC2)C1 [Navitoclax] (partner 0.5 µM)
How it was run: as §1

4EGI-1 + Luminespib = compound: O=C(O)C(Cc1ccccc1[N+](=O)[O-])=NNc1nc(-c2ccc(Cl)c(Cl)c2)cs1 (mixture of isomers) [4EGI-1] + CCNC(=O)c1noc(-c2cc(C(C)C)c(O)cc2O)c1-c1ccc(CN2CCOCC2)cc1 [Luminespib] (partner 0.01 µM)
How it was run: as §1

XMD8-85 + Lapatinib = compound: CN1CCN(CC1)C2=CC(=C(C=C2)NC3=NC=C4C(=N3)N(C5=CC=CC=C5C(=O)N4C)C)OC [XMD8-85] + CS(=O)(=O)CCNCc1ccc(-c2ccc3ncnc(Nc4ccc(OCc5cccc(F)c5)c(Cl)c4)c3c2)o1 [Lapatinib] (partner 2 µM)
How it was run: as §1

Cell Line | relative viability (4EGI-1 + Dasatinib; first compound 0.5 µM) | relative viability (4EGI-1 + Dasatinib; first compound 1.581 µM) | relative viability (4EGI-1 + Dasatinib; first compound 5 µM) | relative viability (4EGI-1 + Dasatinib; first compound 15.81 µM) | relative viability (4EGI-1 + Dasatinib; first compound 50 µM) | relative viability (XMD8-85 + Navitoclax; first compound 0.08 µM) | relative viability (XMD8-85 + Navitoclax; first compound 0.253 µM) | relative viability (XMD8-85 + Navitoclax; first compound 0.8 µM) | relative viability (XMD8-85 + Navitoclax; first compound 2.53 µM) | relative viability (XMD8-85 + Navitoclax; first compound 8 µM) | relative viability (4EGI-1 + Luminespib; first compound 0.5 µM) | relative viability (4EGI-1 + Luminespib; first compound 1.581 µM) | relative viability (4EGI-1 + Luminespib; first compound 5 µM) | relative viability (4EGI-1 + Luminespib; first compound 15.81 µM) | relative viability (4EGI-1 + Luminespib; first compound 50 µM) | relative viability (XMD8-85 + Lapatinib; first compound 0.08 µM) | relative viability (XMD8-85 + Lapatinib; first compound 0.253 µM) | relative viability (XMD8-85 + Lapatinib; first compound 0.8 µM) | relative viability (XMD8-85 + Lapatinib; first compound 2.53 µM) | relative viability (XMD8-85 + Lapatinib; first compound 8 µM)
201T | 0.574 | 0.551 | 0.581 | 0.568 | 0.318 | 1.2 | 1.24 | 1.26 | 1.19 | 1.08 | 1.08 | 0.973 | 1.09 | 0.92 | 0.782 | 1.07 | 1.01 | 1.02 | 1 | 0.828
A549 |  |  |  |  |  | 1.33 | 1.24 | 1.28 | 1.19 | 0.933 |  |  |  |  |  | 1.08 | 0.974 | 1.06 | 1.03 | 0.869
A-427 | 0.797 | 0.513 | 0.527 | 0.46 | 0.159 | 0.993 | 0.995 | 1.03 | 1.03 | 0.95 | 1.04 | 0.658 | 1.01 | 0.793 | 0.315 | 1.05 | 0.994 | 1.09 | 1.1 | 0.937
ABC-1 | 0.585 | 0.501 | 0.586 | 0.38 | 0.192 |  |  |  |  |  | 0.83 | 0.326 | 0.792 | 0.402 | 0.201 | 1.32 | 1.18 | 0.942 | 1.21 | 1.11
BEN | 0.328 | 0.302 | 0.329 | 0.282 | 0.233 | 0.0618 | 0.0742 | 0.437 | 0.0692 | 0.0637 | 0.371 | 0.332 | 0.318 | 0.331 | 0.152 | 0.86 |  | 0.571 | 0.487 | 0.334
CAL-12T | 0.504 | 0.206 | 0.449 | 0.297 | 0.0969 | 1.18 | 1.11 | 1.1 | 1.06 | 0.759 | 0.411 | 0.149 | 0.186 | 0.4 | 0.251 | 0.626 |  | 0.679 | 0.678 | 0.604
COR-L23 | 0.578 | 0.207 | 0.483 | 0.307 | 0.141 | 1.24 | 1.06 | 1.02 | 0.871 | 0.629 | 0.843 | 0.519 | 0.77 | 0.579 | 0.0992 | 0.896 | 1.09 | 1.11 | 1.08 | 0.913
COR-L 105 | 0.357 | 0.335 | 0.326 | 0.235 | 0.248 | 0.83 | 0.819 | 0.738 | 0.563 | 0.337 | 1.04 | 0.648 | 0.801 | 0.667 | 0.598 | 0.366 | 0.341 | 0.407 | 0.342 | 0.348
Calu-6 |  |  |  |  |  | 0.93 | 0.953 | 0.911 | 1.02 | 0.668 |  |  |  |  |  | 1.02 | 1.09 | 1.11 | 1.03 | 0.899
ChaGo-K-1 | 0.661 | 0.629 | 0.639 | 0.48 | 0.25 | 0.788 | 0.983 | 1.02 | 1.13 | 0.421 | 0.631 | 0.38 | 0.62 | 0.517 | 0.491 |  |  |  |  | 
EBC-1 |  |  |  |  |  | 0.437 | 0.375 | 0.402 | 0.296 | 0.268 |  |  |  |  |  | 0.2 | 0.21 | 0.174 | 0.184 | 0.172
EKVX | 0.529 | 0.641 | 0.443 | 0.298 | 0.19 | 0.931 | 0.999 | 0.89 | 1.03 | 0.892 | 0.847 | 0.628 | 0.925 | 0.701 | 0.895 | 0.198 | 0.217 | 0.203 | 0.209 | 0.208
EMC-BAC-2 | 0.369 | 0.298 | 0.361 | 0.362 | 0.296 | 1.12 | 1.23 | 1.16 | 1.13 | 1.16 | 1.25 | 1.01 | 1.16 | 1.15 | 1.06 | 0.914 | 0.847 | 0.945 | 0.944 | 0.835
EPLC-272H | 0.504 |  | 0.34 | 0.252 | 0.138 |  | 1.3 | 1.08 | 1.05 | 0.679 | 0.498 |  | 0.318 | 0.251 | 0.206 |  | 0.824 | 1.02 | 0.905 | 0.566
H3255 | 0.361 | 0.321 | 0.412 | 0.324 | 0.322 | 0.519 | 0.581 | 0.45 | 0.484 | 0.284 | 1.07 | 0.674 | 0.991 | 0.621 | 0.733 | 0.26 | 0.237 | 0.233 | 0.243 | 0.167
HARA | 0.273 | 0.319 | 0.283 | 0.206 | 0.218 | 1.17 | 1.15 | 1.13 | 1 | 0.443 | 0.954 | 0.958 | 0.968 | 0.645 | 0.0683 | 0.761 | 0.781 | 0.907 | 0.787 | 0.569
HCC-15 | 0.642 |  | 0.612 | 0.511 | 0.308 | 0.731 | 0.642 | 0.698 | 0.655 | 0.499 | 0.25 | 0.437 | 0.268 | 0.157 | 0.152 | 0.851 | 0.879 | 0.863 | 0.948 | 0.747
HCC-44 |  |  |  |  |  | 1.03 | 1.03 | 1.05 | 0.796 | 0.434 | 1.22 |  | 0.979 | 0.764 | 0.23 | 0.942 | 0.884 | 1.1 | 1.06 | 0.959
